Data taken from article PMC5513037, “Examining the influence of specificity ligands and ATP-competitive ligands on the overall effectiveness of bivalent kinase inhibitors” (Proteome Science, 2017).

Assays:
Test in all cases: KAM-matrix competition in K562 lysate;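 as to 0.001 uM KAM: median log10 fold change of treatment over DMSO control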;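 as to 0.01 uM KAM: median log10 fold change of treatment over DMSO control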;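 as to 0.1 uM KAM: median log10 fold change of treatment over DMSO control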;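 as to 1 uM KAM: median log10 fold change of treatment over DMSO control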;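 as to 10 uM KAM: median log10 fold change of treatment over DMSO control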
Type in all cases: binding
STK10 = target: T1, STK10 (Homo sapiens, UniProt O94804)
T1 construct: endogenous in cells; host or cells: K562 cell lysate
T1 sequence (O94804 whole entry): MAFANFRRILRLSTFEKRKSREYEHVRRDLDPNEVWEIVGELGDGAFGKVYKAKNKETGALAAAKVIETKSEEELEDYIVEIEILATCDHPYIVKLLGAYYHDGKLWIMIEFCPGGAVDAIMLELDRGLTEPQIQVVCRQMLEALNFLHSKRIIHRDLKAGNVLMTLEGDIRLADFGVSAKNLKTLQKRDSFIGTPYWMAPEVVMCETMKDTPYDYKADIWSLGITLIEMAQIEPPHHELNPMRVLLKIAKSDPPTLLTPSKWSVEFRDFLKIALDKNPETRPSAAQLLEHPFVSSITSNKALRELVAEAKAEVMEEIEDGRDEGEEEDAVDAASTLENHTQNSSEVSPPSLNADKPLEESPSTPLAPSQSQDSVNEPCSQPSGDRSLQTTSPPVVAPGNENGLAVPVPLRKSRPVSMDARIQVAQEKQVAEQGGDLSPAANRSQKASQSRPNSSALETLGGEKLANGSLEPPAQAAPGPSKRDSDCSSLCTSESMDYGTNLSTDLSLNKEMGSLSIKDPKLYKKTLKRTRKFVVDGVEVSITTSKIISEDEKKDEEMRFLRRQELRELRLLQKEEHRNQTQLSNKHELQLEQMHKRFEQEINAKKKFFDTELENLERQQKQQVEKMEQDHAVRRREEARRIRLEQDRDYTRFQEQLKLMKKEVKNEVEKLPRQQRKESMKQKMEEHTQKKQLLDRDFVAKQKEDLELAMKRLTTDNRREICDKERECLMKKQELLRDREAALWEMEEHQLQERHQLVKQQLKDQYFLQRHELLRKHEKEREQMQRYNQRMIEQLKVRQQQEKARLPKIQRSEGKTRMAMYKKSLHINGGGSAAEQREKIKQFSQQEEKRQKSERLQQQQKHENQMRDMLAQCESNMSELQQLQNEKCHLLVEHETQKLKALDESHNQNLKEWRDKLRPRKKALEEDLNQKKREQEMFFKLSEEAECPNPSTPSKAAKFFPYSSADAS
Method: (§1) Supplement 12953_2017_125_MOESM1_ESM.zip/MS_Supp Info.xlsx, sheet "KAM" | column: 10 uM KAM; 1 uM KAM; 0.1 uM KAM; 0.01 uM KAM; 0.001 uM KAM; RB50

MAPK9 = target: T2, MAPK9 (Homo sapiens, UniProt P45984)
T2 construct: endogenous in cells; host or cells: K562
T2 sequence (P45984 whole entry): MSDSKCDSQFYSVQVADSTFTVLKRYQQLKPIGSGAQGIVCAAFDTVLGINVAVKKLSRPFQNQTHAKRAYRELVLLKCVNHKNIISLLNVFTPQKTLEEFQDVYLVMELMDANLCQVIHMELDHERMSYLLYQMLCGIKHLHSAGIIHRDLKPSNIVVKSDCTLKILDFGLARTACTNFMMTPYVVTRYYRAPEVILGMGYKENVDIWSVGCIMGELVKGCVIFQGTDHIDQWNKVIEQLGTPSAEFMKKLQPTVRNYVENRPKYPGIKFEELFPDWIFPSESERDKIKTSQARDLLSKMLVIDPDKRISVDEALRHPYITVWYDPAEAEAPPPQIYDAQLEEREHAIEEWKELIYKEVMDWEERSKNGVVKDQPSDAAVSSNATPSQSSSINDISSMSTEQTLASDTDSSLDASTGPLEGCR
Method: as §1

TLK1 = target: T3, TLK1 (Homo sapiens, UniProt Q9UKI8);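 as to 0.001 uM KAM: median log10 fold change of treatment over DMSO control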;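 as to 0.01 uM KAM: median log10 fold change of treatment over DMSO control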;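 as to 0.1 uM KAM: median log10 fold change of treatment over DMSO control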;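 as to 1 uM KAM: median log10 fold change of treatment over DMSO control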;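 as to 10 uM KAM: median log10 fold change of treatment over DMSO control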
T3 construct: endogenous in cells; host or cells: K562 cells (combined S0.8 and P0.8 lysate)
T3 sequence (Q9UKI8 1-766): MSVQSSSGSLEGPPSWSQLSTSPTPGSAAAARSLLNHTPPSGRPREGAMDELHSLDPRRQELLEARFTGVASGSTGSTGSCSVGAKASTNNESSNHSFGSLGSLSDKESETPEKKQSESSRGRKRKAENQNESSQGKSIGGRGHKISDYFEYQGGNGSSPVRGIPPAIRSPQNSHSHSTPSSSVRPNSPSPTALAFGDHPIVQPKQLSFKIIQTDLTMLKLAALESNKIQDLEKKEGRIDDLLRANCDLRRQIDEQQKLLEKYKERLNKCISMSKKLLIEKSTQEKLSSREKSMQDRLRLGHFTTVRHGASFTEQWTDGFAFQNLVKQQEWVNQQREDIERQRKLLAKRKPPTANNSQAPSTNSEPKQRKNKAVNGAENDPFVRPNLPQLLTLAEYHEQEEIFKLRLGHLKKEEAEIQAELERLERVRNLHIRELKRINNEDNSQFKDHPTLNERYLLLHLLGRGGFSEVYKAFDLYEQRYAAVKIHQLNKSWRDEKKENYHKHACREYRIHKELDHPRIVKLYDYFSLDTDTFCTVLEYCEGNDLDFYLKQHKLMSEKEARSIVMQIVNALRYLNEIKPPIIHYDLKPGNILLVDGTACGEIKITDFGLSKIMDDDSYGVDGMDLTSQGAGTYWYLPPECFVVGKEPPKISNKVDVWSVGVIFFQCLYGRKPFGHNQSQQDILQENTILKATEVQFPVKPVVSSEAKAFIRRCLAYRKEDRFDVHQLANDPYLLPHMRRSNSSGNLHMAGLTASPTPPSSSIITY
Method: as §1

EPHA2 = target: T4, EPHA2 (Homo sapiens, UniProt P29317);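 as to 0.001 uM KAM: median log10 fold change of treatment over DMSO control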;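 as to 0.01 uM KAM: median log10 fold change of treatment over DMSO control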;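 as to 0.1 uM KAM: median log10 fold change of treatment over DMSO control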;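 as to 1 uM KAM: median log10 fold change of treatment over DMSO control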;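 as to 10 uM KAM: median log10 fold change of treatment over DMSO control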
T4 construct: endogenous in cells; host or cells: K562
T4 sequence (P29317 24-976): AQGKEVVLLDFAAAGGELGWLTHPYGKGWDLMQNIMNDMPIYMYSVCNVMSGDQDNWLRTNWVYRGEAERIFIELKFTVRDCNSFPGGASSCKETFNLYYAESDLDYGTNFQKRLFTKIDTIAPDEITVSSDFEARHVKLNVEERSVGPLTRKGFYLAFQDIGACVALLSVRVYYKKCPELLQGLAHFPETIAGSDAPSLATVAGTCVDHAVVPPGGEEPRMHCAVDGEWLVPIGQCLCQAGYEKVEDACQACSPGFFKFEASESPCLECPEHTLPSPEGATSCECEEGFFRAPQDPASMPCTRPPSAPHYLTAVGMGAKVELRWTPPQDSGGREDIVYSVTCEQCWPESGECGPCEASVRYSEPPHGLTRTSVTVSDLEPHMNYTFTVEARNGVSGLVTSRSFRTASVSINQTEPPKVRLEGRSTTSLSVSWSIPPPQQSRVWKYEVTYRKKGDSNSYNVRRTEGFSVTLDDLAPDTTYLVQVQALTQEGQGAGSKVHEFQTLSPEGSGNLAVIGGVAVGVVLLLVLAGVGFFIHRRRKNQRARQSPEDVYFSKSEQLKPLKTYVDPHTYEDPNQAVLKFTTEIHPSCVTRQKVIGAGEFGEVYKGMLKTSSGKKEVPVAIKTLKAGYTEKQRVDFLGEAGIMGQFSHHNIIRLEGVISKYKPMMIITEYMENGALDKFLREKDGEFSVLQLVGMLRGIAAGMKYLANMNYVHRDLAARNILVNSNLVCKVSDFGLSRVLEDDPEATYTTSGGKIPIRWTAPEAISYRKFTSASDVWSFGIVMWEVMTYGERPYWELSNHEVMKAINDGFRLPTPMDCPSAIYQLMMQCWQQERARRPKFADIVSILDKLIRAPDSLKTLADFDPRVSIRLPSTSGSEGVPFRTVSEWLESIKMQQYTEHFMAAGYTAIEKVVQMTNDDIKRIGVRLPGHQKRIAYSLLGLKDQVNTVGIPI
Method: as §1

PEAK1 = target: T5, PEAK1 (Homo sapiens, UniProt Q9H792);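 as to 0.001 uM KAM: median log10 fold change of treatment over DMSO control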;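 as to 0.01 uM KAM: median log10 fold change of treatment over DMSO control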;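 as to 0.1 uM KAM: median log10 fold change of treatment over DMSO control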;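 as to 1 uM KAM: median log10 fold change of treatment over DMSO control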;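 as to 10 uM KAM: median log10 fold change of treatment over DMSO control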
T5 construct: endogenous in cells; host or cells: K562
T5 sequence (Q9H792 whole entry): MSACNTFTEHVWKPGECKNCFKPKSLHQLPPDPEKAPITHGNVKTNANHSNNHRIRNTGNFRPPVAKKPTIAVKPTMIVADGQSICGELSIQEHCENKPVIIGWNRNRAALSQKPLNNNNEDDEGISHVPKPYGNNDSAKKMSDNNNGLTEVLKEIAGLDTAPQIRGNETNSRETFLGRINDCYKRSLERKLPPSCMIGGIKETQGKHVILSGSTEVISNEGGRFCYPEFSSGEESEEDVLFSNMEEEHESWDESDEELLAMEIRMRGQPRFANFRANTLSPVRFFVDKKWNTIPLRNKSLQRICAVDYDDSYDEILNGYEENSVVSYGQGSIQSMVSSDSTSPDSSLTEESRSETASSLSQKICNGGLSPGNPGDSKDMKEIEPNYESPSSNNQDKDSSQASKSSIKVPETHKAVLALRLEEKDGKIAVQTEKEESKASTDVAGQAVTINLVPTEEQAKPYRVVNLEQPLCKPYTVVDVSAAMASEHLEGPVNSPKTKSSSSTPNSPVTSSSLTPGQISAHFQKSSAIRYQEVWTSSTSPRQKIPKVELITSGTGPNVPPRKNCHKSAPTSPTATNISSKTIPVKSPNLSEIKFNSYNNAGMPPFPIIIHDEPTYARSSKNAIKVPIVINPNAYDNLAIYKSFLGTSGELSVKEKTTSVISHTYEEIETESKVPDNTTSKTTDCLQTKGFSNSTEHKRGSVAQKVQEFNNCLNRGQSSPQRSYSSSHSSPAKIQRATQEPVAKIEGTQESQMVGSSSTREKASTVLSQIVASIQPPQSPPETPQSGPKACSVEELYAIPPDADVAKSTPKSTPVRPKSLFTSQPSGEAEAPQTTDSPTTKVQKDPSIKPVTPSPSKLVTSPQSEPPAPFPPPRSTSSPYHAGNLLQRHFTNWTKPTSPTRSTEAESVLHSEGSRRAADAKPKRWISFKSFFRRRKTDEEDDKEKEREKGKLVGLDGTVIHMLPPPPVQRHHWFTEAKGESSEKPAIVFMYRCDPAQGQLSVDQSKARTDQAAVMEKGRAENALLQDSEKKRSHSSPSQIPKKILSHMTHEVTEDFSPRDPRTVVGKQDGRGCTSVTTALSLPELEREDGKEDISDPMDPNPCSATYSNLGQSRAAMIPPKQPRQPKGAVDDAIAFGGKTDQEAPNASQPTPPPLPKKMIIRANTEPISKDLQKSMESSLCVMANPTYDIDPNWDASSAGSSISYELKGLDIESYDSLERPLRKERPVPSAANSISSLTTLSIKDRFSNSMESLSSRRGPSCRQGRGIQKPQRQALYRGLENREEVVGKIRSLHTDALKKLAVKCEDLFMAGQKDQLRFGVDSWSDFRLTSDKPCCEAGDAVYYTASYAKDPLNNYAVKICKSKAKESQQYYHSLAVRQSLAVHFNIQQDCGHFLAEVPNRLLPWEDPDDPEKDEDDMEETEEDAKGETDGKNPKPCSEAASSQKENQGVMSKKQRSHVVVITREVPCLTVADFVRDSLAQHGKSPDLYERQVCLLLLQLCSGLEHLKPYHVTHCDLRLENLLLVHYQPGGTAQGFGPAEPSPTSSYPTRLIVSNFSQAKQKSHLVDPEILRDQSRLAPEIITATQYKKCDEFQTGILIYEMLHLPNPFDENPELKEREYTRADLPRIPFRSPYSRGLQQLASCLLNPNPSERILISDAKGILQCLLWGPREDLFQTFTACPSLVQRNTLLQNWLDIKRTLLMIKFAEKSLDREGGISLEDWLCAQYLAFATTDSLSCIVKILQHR
Method: as §1

SRC = target: T6, SRC (Homo sapiens, UniProt P12931)
T6 construct: endogenous in cells; host or cells: K562
T6 sequence (P12931 whole entry): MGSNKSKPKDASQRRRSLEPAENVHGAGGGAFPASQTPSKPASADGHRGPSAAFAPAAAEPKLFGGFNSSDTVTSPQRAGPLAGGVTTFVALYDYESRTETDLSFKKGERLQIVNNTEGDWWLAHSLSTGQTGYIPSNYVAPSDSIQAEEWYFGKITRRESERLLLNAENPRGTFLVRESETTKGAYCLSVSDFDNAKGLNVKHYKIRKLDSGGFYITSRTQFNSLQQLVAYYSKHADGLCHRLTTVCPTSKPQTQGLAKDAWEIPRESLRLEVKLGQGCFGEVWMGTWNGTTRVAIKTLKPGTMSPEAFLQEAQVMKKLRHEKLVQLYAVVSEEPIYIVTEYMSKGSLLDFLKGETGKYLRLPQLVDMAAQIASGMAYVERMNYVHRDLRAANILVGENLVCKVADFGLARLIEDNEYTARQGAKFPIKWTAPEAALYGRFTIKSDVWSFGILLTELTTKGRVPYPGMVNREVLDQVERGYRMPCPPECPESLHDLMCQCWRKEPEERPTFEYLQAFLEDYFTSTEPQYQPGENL
Method: as §1

MAP4K3 = target: T7, MAP4K3 (Homo sapiens, UniProt Q8IVH8)
T7 construct: endogenous in cells; host or cells: K562
T7 sequence (Q8IVH8 1-894): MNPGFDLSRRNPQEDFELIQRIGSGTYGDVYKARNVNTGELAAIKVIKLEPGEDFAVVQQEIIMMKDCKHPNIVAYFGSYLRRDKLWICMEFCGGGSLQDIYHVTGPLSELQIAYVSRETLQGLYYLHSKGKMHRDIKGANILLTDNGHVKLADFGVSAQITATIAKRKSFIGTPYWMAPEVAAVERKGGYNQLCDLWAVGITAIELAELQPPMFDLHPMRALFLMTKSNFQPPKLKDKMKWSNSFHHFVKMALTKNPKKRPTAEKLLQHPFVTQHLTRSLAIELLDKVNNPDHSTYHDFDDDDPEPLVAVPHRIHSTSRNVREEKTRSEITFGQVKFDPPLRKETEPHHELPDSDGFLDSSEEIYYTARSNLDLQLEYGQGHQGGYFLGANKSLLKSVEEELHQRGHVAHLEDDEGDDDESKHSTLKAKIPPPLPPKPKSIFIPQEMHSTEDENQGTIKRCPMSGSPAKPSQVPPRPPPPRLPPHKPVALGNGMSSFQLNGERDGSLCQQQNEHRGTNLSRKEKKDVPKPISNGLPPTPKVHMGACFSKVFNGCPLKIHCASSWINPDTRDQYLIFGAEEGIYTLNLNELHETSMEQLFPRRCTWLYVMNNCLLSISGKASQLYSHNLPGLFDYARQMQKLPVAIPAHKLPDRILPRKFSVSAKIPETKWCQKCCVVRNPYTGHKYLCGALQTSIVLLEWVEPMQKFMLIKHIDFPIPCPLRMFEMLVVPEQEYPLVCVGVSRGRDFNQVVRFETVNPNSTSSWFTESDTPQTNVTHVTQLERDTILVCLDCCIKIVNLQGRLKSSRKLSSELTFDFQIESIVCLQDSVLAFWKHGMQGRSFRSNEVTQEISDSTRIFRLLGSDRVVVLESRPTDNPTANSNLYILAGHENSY
Method: as §1

[1] = read-out: RB50 (the source's name)
[2] = KAM 0.001-10 uM, read-out: RB50 (the source's name)

For N#CCc1ccc(Nc2nc(NCCCN)cc(Nc3cc(C4CC4)[nH]n3)n2)cc1 [KAM], the “median Log10 fold change” value (STK10; 0.001 uM KAM) was -0.02902, the “median Log10 fold change” value (STK10; 0.01 uM KAM) was -0.03253 and the “median Log10 fold change” value (STK10; 0.1 uM KAM) was -0.2078. The “median Log10 fold change” value (STK10; 1 uM KAM) was -0.4135, the “median Log10 fold change” value (STK10; 10 uM KAM) was -0.5057 and the IC50 (STK10; [1]) was 404 nM. For the same compound, the “median Log10 fold change” value (MAPK9; 0.001 uM KAM) was -0.01416, the “median Log10 fold change” value (MAPK9; 0.01 uM KAM) was -0.02342 and the “median Log10 fold change” value (MAPK9; 0.1 uM KAM) was -0.0954. For the same compound, the “median Log10 fold change” value (MAPK9; 1 uM KAM) was -0.2518, the “median Log10 fold change” value (MAPK9; 10 uM KAM) was -0.4014 and the IC50 (MAPK9; [1]) was 2070 nM. For the same compound, the IC50 (TLK1; [2]) was over 10000 nM, the “0.001 uM KAM” value (TLK1; relative to 0 uM KAM = 0) was -0.0133 and the “0.01 uM KAM” value (TLK1; relative to 0 uM KAM = 0) was 0.001518. For the same compound, the “0.1 uM KAM” value (TLK1; relative to 0 uM KAM = 0) was -0.1562, the “1 uM KAM” value (TLK1; relative to 0 uM KAM = 0) was -0.3373 and the “10 uM KAM” value (TLK1; relative to 0 uM KAM = 0) was -0.1561. The IC50 (EPHA2; [2]) was over 10000 nM, the “0.001 uM KAM” value (EPHA2; relative to 0 uM KAM = 0) was -0.04778 and the “0.01 uM KAM” value (EPHA2; relative to 0 uM KAM = 0) was 0.0608. The “0.1 uM KAM” value (EPHA2; relative to 0 uM KAM = 0) was 0.1233, the “1 uM KAM” value (EPHA2; relative to 0 uM KAM = 0) was 0.3139 and the “10 uM KAM” value (EPHA2; relative to 0 uM KAM = 0) was 0.0956. The IC50 (PEAK1; [2]) was over 10000 nM, the “0.001 uM KAM” value (PEAK1; relative to 0 uM KAM = 0) was 0.04051 and the “0.01 uM KAM” value (PEAK1; relative to 0 uM KAM = 0) was 0.04298. For the same compound, the “0.1 uM KAM” value (PEAK1; relative to 0 uM KAM = 0) was 0.03477, the “1 uM KAM” value (PEAK1; relative to 0 uM KAM = 0) was 0.09337 and the “10 uM KAM” value (PEAK1; relative to 0 uM KAM = 0) was 0.04238. The “median Log10 fold change” value (SRC; 0.001 uM KAM) was -0.003111, the “median Log10 fold change” value (SRC; 0.01 uM KAM) was -0.02243 and the “median Log10 fold change” value (SRC; 0.1 uM KAM) was -0.1125. The “median Log10 fold change” value (SRC; 1 uM KAM) was -0.3083, the “median Log10 fold change” value (SRC; 10 uM KAM) was -0.5006 and the IC50 (SRC; [1]) was 1100 nM. The “median Log10 fold change” value (MAP4K3; 0.001 uM KAM) was -0.00532, the “median Log10 fold change” value (MAP4K3; 0.01 uM KAM) was -0.01342 and the “median Log10 fold change” value (MAP4K3; 0.1 uM KAM) was -0.1612. For the same compound, the “median Log10 fold change” value (MAP4K3; 1 uM KAM) was -0.436, the “median Log10 fold change” value (MAP4K3; 10 uM KAM) was -0.5629 and the IC50 (MAP4K3; [1]) was 472 nM.
